In PMC6934184, “Selective DNA-PKcs inhibition extends the therapeutic index of localized radiotherapy and chemotherapy” (The Journal of Clinical Investigation, 2019):

Molecular target: T1, KIT D820E (Homo sapiens, UniProt P10721, D820E)
T1 construct: purchased Thermo Fisher Scientific (Life Technologies) SelectScreen
Experiment: SelectScreen LanthaScreen
Format: binding
Details: read-out: % displacement
In short: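 NU5455 was profiled across the SelectScreen Broad panel of kinase activity and binding assays. Z'LYTE reactions such as CSF1R ran at apparent Km ATP, while the Adapta CAMK1 assay used ATP listed as 10. Values are given as percent.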

T1 sequence (P10721 26-976 D820E): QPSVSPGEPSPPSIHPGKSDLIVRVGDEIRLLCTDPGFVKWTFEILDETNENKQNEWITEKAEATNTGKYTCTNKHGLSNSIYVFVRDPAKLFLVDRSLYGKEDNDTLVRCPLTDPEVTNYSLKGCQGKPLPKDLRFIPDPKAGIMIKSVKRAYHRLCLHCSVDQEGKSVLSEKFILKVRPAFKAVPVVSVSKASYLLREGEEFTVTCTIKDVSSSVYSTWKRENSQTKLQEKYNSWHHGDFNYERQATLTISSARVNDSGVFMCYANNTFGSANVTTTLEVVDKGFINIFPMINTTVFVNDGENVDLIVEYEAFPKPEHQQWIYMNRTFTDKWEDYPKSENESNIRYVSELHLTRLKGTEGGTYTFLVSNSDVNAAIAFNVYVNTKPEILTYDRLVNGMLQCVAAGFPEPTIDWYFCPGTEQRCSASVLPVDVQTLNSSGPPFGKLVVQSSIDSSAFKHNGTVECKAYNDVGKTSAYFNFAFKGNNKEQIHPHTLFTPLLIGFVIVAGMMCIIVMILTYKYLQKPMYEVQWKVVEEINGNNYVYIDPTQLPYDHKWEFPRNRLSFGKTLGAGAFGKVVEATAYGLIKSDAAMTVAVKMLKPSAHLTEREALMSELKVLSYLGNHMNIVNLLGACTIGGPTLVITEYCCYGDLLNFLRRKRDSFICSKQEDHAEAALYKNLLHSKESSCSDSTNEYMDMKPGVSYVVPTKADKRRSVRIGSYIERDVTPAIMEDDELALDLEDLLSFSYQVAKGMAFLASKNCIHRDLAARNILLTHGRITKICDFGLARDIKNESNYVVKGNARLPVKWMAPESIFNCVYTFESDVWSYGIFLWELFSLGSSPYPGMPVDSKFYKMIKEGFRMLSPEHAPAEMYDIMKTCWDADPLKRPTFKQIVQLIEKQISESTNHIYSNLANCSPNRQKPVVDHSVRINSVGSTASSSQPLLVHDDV

For `CN(C(=O)CN1CCOCC1)c1ccc2sc3c(-c4cccc5c(=O)cc(N6CC7CCC(C6)O7)oc45)cccc3c2c1` [NU5455], the inhibition at 1 µM was 1.3%.
